Our source for the IC50 values is US11655246B2, “Aminothiazole compounds as inhibitors of CTPS1” (STEP PHARMA S.A.S., priority 2017, dated 2023).

Each structure is given as a SMILES string. pIC50: −log10 of the molar value. Several values for one entry are separate records, joined by “and”; a condition that tells them apart may be missing. Equal entries are not always repeated.

The target of this test is T1, human CTPS1 (Homo sapiens, UniProt P17812).
T1 construct: purchased Proteros biostructures GmbH
T1 sequence (P17812 1-591): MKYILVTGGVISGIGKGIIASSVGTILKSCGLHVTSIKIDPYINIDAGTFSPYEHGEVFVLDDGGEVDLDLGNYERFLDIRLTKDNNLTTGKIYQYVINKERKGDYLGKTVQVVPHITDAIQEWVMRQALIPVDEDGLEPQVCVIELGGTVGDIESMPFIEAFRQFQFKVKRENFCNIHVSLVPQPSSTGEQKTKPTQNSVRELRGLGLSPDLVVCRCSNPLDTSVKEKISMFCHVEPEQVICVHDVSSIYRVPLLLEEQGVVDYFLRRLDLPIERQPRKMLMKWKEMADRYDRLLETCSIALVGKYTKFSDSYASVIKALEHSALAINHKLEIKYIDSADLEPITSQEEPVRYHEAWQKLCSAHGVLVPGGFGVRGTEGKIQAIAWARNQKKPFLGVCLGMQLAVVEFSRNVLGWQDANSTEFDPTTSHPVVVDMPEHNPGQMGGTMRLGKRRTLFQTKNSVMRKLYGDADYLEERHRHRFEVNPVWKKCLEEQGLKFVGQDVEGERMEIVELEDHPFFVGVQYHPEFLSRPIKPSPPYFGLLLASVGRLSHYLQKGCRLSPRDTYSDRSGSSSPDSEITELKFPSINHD
Kind of test: Human CTPS1 enzyme inhibition (ADP-Glo Max assay). Format: biochemical. As to conditions: Table 18, additional potency data, 25° C., read-out: CTPS1 (Human CTPS1 Enzyme Inhibition data grouped by potency range). An outline of the steps:
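ADP-Glo Max luminescence detection of ATP-to-ADP conversion by the enzyme, in 50 mM Tris, 10 mM MgCl2, 0.01% Tween-20, pH 8.0, with 2 mM L-cysteine added fresh. Enzyme preincubated with compound 10 minutes at 25° C. Percentage inhibition calculated per compound concentration.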
In general terms: ADP-Glo turns the ADP formed in a reaction into a luminescent signal.
As for `CC(C)(C(=O)Nc1ccc(-c2cccnc2)cc1)c1csc(NS(=O)(=O)C2CCCC2)n1` [T333, 2-(2-(cyclopentanesulfonamido)thiazol-4-yl)-2-methyl-N-(4-(pyridin-3-yl)phenyl)propanamide], the pIC50 is 5.00 to 6.00.

For `CC(C)(C(=O)Nc1ccc(-c2cncc(C(F)(F)F)n2)cc1)c1csc(NS(=O)(=O)C2CCCC2)n1` [T334, 2-(2-(cyclopentanesulfonamido)thiazol-4-yl)-2-methyl-N-(4-(6-(trifluoromethyl)pyrazin-2-yl)phenyl)propanamide], the pIC50 is 6.00 to 7.00.

In the case of `CCOc1cncc(-c2ccc(NC(=O)C(C)(C)c3csc(NS(=O)(=O)C4CCCC4)n3)cc2)n1` [T335, 2-(2-(cyclopentanesulfonamido)thiazol-4-yl)-N-(4-(6-ethoxypyrazin-2-yl)phenyl)-2-methylpropanamide], the pIC50 is 6.00 to 7.00.

As to `CC(C)c1cncc(-c2ccc(NC(=O)C(C)(C)c3csc(NS(=O)(=O)C4CC4)n3)nc2)n1` [T336, 2-(2-(cyclopropanesulfonamido)thiazol-4-yl)-N-(5-(6-isopropylpyrazin-2-yl)pyridin-2-yl)-2-methylpropanamide], the pIC50 was 6.00 to 7.00.

`CCOc1cncc(-c2ccc(NC(=O)C(C)(C)c3csc(NS(=O)(=O)C4CC4)n3)nc2)c1` [T337, 2-(2-(cyclopropanesulfonamido)thiazol-4-yl)-N-(5′-ethoxy-[3,3′-bipyridin]-6-yl)-2-methylpropanamide]: the pIC50 is above 7.00.

On to `CC(C)(O)c1cncc(-c2ccc(NC(=O)C(C)(C)c3csc(NS(=O)(=O)C4CC4)n3)nc2)n1` [T338, 2-(2-(cyclopropanesulfonamido)thiazol-4-yl)-N-(5-(6-(2-hydroxypropan-2-yl)pyrazin-2-yl)pyridin-2-yl)-2-methylpropanamide], for which the pIC50 is 5.00 to 6.00.

Consider `COC(C)(C)c1cncc(-c2ccc(NC(=O)C(C)(C)c3csc(NS(=O)(=O)C4CC4)n3)nc2)n1` [T339, 2-(2-(cyclopropanesulfonamido)thiazol-4-yl)-N-(5-(6-(2-methoxypropan-2-yl)pyrazin-2-yl)pyridin-2-yl)-2-methylpropanamide], for which the pIC50 was 5.00 to 6.00.

As for `Cc1sc(NS(=O)(=O)C2CC2)nc1C(C)(C)C(=O)Nc1ccc(-c2cncc(C(F)(F)F)n2)cn1` [T340, 2-(2-(cyclopropanesulfonamido)-5-methylthiazol-4-yl)-2-methyl-N-(5-(6-(trifluoromethyl)pyrazin-2-yl)pyridin-2-yl)propanamide], the pIC50 is 6.00 to 7.00.

In the case of `CCOc1cncc(-c2ccc(NC(=O)C(C)(C)c3csc(NS(=O)(=O)C4CC4)n3)nc2)n1` [T341, 2-(2-(cyclopropanesulfonamido)thiazol-4-yl)-N-(5-(6-ethoxypyrazin-2-yl)pyridin-2-yl)-2-methylpropanamide], the pIC50 is above 7.00.

For `CCOc1cncc(-c2ccc(NC(=O)C(C)(C)c3nc(NS(=O)(=O)C4CC4)sc3C)nc2)n1` [T342, 2-(2-(cyclopropanesulfonamido)-5-methylthiazol-4-yl)-N-(5-(6-ethoxypyrazin-2-yl)pyridin-2-yl)-2-methylpropanamide], the pIC50 is above 7.00.

`CC(C)(C(=O)Nc1ccc(-c2cncc(Cl)c2)cc1C(F)(F)F)c1csc(NS(=O)(=O)C2CC2)n1` [T343, N-(4-(5-chloropyridin-3-yl)-2-(trifluoromethyl)phenyl)-2-(2-(cyclopropanesulfonamido)thiazol-4-yl)-2-methylpropanamide]: the pIC50 was above 7.00.

Turning to `CC(C)(C(=O)Nc1ccc(-c2cncc(C#N)c2)cc1C(F)(F)F)c1csc(NS(=O)(=O)C2CC2)n1` [T344, N-(4-(5-cyanopyridin-3-yl)-2-(trifluoromethyl)phenyl)-2-(2-(cyclopropanesulfonamido)thiazol-4-yl)-2-methylpropanamide], the pIC50 is above 7.00.

Regarding `CC(C)(C(=O)Nc1ccc(-c2cncc(F)c2)cc1C(F)(F)F)c1csc(NS(=O)(=O)C2CC2)n1` [T345, 2-(2-(cyclopropanesulfonamido)thiazol-4-yl)-N-(4-(5-fluoropyridin-3-yl)-2-(trifluoromethyl)phenyl)-2-methylpropanamide], the pIC50 is above 7.00.

In the case of `CC(C)(C(=O)Nc1ccc(-c2cncc(C(F)(F)F)n2)cc1C(F)(F)F)c1csc(NS(=O)(=O)C2CC2)n1` [T346, 2-(2-(cyclopropanesulfonamido)thiazol-4-yl)-2-methyl-N-(2-(trifluoromethyl)-4-(6-(trifluoromethyl)pyrazin-2-yl)phenyl)propanamide], the pIC50 is 6.00 to 7.00.

As for `CCOc1cncc(-c2ccc(NC(=O)C(C)(C)c3csc(NS(=O)(=O)C4CC4)n3)c(C(F)(F)F)c2)n1` [T347, 2-(2-(cyclopropanesulfonamido)thiazol-4-yl)-N-(4-(6-ethoxypyrazin-2-yl)-2-(trifluoromethyl)phenyl)-2-methylpropanamide], the pIC50 was above 7.00.

On to `CCc1cc(-c2cncc(Cl)c2)cc(CC)c1NC(=O)C(C)(C)c1csc(NS(=O)(=O)C2CC2)n1` [T348, N-(4-(5-chloropyridin-3-yl)-2,6-diethylphenyl)-2-(2-(cyclopropanesulfonamido)thiazol-4-yl)-2-methylpropanamide], for which the pIC50 is 6.00 to 7.00.

`CCc1cc(-c2cncc(C#N)c2)cc(CC)c1NC(=O)C(C)(C)c1csc(NS(=O)(=O)C2CC2)n1` [T349, N-(4-(5-cyanopyridin-3-yl)-2,6-diethylphenyl)-2-(2-(cyclopropanesulfonamido)thiazol-4-yl)-2-methylpropanamide]: the pIC50 is 6.00 to 7.00.

Turning to `Cc1sc(NS(=O)(=O)C2CC2)nc1C(C)(C)C(=O)Nc1ccc(-c2cncc(C(F)(F)F)c2)cc1F` [T350, 2-(2-(cyclopropanesulfonamido)-5-methylthiazol-4-yl)-N-(2-fluoro-4-(5-(trifluoromethyl)pyridin-3-yl)phenyl)-2-methylpropanamide], the pIC50 is 6.00 to 7.00.

As to `CC(C)(C(=O)Nc1c(F)cc(-c2cncc(Cl)c2)cc1F)c1csc(NS(=O)(=O)C2CC2)n1` [T351, N-(4-(5-chloropyridin-3-yl)-2,6-difluorophenyl)-2-(2-(cyclopropanesulfonamido)thiazol-4-yl)-2-methylpropanamide], the pIC50 was 6.00 to 7.00 and > 7.00.

`Cc1cc(NC(=O)C(C)(C)c2csc(NS(=O)(=O)C3CC3)n2)c(F)cc1-c1cncc(Cl)c1` [T352, N-(4-(5-chloropyridin-3-yl)-2-fluoro-5-methylphenyl)-2-(2-(cyclopropanesulfonamido)thiazol-4-yl)-2-methylpropanamide]: the pIC50 was 6.00 to 7.00.

Turning to `COC(C)(C)c1cncc(-c2ccc(NC(=O)C(C)(C)c3csc(NS(=O)(=O)C4CC4)n3)c(F)c2)n1` [T353, 2-(2-(cyclopropanesulfonamido)thiazol-4-yl)-N-(2-fluoro-4-(6-(2-methoxypropan-2-yl)pyrazin-2-yl)phenyl)-2-methylpropanamide], the pIC50 was 6.00 to 7.00.

`Cc1sc(NS(=O)(=O)C2CC2)nc1C(C)(C)C(=O)Nc1ccc(-c2cncc(C(F)(F)F)n2)cc1F` [T354, 2-(2-(cyclopropanesulfonamido)-5-methylthiazol-4-yl)-N-(2-fluoro-4-(6-(trifluoromethyl)pyrazin-2-yl)phenyl)-2-methylpropanamide]: the pIC50 was 6.00 to 7.00.

Consider `CC(C)(C(=O)Nc1ccc(-c2cncc(C#N)n2)cc1F)c1csc(NS(=O)(=O)C2CC2)n1` [T355, N-(4-(6-cyanopyrazin-2-yl)-2-fluorophenyl)-2-(2-(cyclopropanesulfonamido)thiazol-4-yl)-2-methylpropanamide], for which the pIC50 was 5.00 to 6.00.
